This is an account of results in US11584775B2, “C4-modified oleanolic acid derivatives for inhibition of IL-17 and other uses” (REATA PHARMACEUTICALS, INC., priority 2015, dated 2023).

Structures are written as SMILES.

One experiment deals with hIL17. In words: IL-17 release from differentiated primary human T-cells (IL-17A HTRF assay). Particulars: inhibition of IL-17A levels; primary human CD4+ T cells differentiated into Th17 cells, 46-hour incubation. It counts as cell-based. As for the experimental part: D. IL-17 Release from Differentiated Primary Human T-Cells and Cell Viability
Primary human cryopreserved CD4+ T Cells (Lonza, donor #0000402103) were plated in Lymphocyte Growth Medium-3 (LGM-3, Lonza) according to the manufacturer's recommendations, and allowed to recover for approximately 3 hours at 37° C. with 5% CO2 in a humidified atmosphere. After the recovery step, cells were collected by centrifugation and re-plated in 96-well plates at a density of ˜140,000 cells per well in LGM-3 medium that contained DMSO (vehicle) or test compound (2-500 nM or 4-1000 nM concentration range). Triplicate wells were plated for each test condition. DMSO (final concentration ≤0.1%) was used as the vehicle. Immediately after plating, CD4+ T cells were activated by adding Dynabeads Human T-Activator CD3/CD28 (Life Technologies; bead-to-cell ratio of 1:2.5) and differentiated into Th17 cells by adding a mixture of the following cytokines: transforming growth factor-β (TGF-β, 5 ng/mL), IL-6 (20 ng/mL), IL-23 (20 ng/mL), and […] (10 ng/mL). Undifferentiated control cells received only cytokine IL-2 (50 ng/mL). All human recombinant cytokines were purchased from R&D Systems. Following a 46-hour incubation at 37° C. with 5% CO2 in a humidified atmosphere, the plates were centrifuged for 3 minutes at 250×g, and half of the supernatant was transferred to a new plate to be used in the IL-17A assay (see below). Cell viability was assessed in the original plate using the CyQuant Direct Assay (Life Technologies). CyQuant values from test compound samples were normalized to those from DMSO-treated samples. The concentration of IL-17A in the supernatant was measured using the Homogeneous Time-Resolved Fluorescence (HTRF) assay (Cisbio Bioassays) according to the manufacturer's protocol. The assay was performed at room temperature in low volume, solid white 384-well plates (Greiner Bio-One). Samples and standards (serially-diluted human recombinant IL-17A (0 to 5,000 pg/mL concentration range; Cisbio Bioassays) were incubated with the anti-human IL-17A antibody conjugate for 16 hours and fluorescence was measured using a Pherastar FS microplate reader (BMG Labtech) in the HTRF mode (excitation at 337 nm and emission at 665 nm and 620 nm). IL-17A concentrations were assessed in duplicate aliquots of supernatant from each well resulting in a total of six readings per test condition. The 665 nm/620 nm signal ratio was calculated and the concentration of IL-17A in each sample was determined by interpolation from the standard curve. IL-17A values from test compound samples were normalized to those from DMSO-treated samples. Data were analyzed using GraphPad Prism version 6.00 for Windows (GraphPad Software, La Jolla Calif. USA). A non-linear regression analysis with log (inhibitor) vs. normalized response using a variable slope was applied to fit the data and determine the IC50 values for inhibition of IL-17A levels and cell viability.
Background: In TR-FRET formats the signal depends on donor and acceptor labels being close together.

Experiment [1] concerns IFNγ-induced Nitric Oxide production. In words: Nitric oxide production assay in RAW 264.7 mouse macrophages. It counts as cell-based. As to conditions: RAW264.7, suppression of IFNγ-induced NO production normalized to cell viability (WST-1), RAW 264.7, 24 hours IFNγ. The protocol: A. Nitric Oxide Production Assay and Cell Viability
RAW 264.7 mouse macrophages were plated in 96-well plates at a density of 30,000 cells per well in triplicate in RPMI 1640+0.5% FBS and incubated at 37° C. with 5% CO2 in a humidified atmosphere. The next day, cells were pre-treated with DMSO (vehicle) or test compound (concentration ranges of 0.4-200 nM or 2-1000 nM) for 2 hours and then treated with recombinant mouse IFNγ (R&D Systems) for 24 hours. Nitric oxide concentration in media was determined using the Griess reagent system (Promega). Cell viability was determined using WST-1 reagent (Roche). Values from test compound samples were normalized to those from DMSO/IFNγ-treated samples. IC50 values were determined based on the suppression of IFNγ-induced Nitric Oxide production normalized to cell viability.

In another experiment the target is T1, human RORγ (Homo sapiens, UniProt P51449).
T1 sequence (P51449 269-508 limits assumed): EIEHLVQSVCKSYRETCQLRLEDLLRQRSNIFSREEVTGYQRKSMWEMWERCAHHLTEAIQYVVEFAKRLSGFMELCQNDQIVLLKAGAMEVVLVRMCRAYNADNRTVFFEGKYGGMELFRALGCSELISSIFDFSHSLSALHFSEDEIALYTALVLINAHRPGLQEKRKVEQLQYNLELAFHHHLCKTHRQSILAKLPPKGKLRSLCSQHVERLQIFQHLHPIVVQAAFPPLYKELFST
In words: RORγ assay (GAL4-RORγ hybrid luciferase reporter, inverse-agonist activity). It counts as cell-based. Particulars: GAL4-RORγ hybrid reporter cells, 23 hours. An excerpt: C. RORγ Assay and Cell Viability
The RORγ assay system was purchased from Indigo Biosciences. This nuclear receptor assay utilizes a human cell line that has been engineered to express a hybrid form of the Human RAR-related Orphan Receptor Gamma (RORγ) at high levels. The N-terminal DNA binding domain (DBD) of the native RORγ receptor was substituted with the yeast GAL4-DBD to generate the GAL4-RORγ hybrid nuclear receptor. The reporter cell line is transfected with a plasmid that encodes the beetle luciferase gene under the control of the GAL4 upstream activating sequence (UAS). GAL4 binds to the UAS and increases transcription of downstream target genes. […] To assess the RORγ inverse-agonist activity of the test compounds, reporter cells were plated in white 96-well plates in triplicate and were treated with DMSO (vehicle) or test compound (concentration ranges of 0.4-200 nM or 2-1000 nM) at 37° C. with 5% CO2 in a humidified atmosphere for 23 hours. After this incubation, luciferin was added to the wells and luciferase activity was determined by measuring the luminescence signal using a BMG Pherastar microplate reader. Viability was determined using the Live Cell Multiplex Assay (Indigo Biosciences). Values from test compound samples were normalized to those from DMSO-treated samples. Data were analyzed using GraphPad Prism version 6.00 for Windows (GraphPad Software, La Jolla Calif. USA). A non-linear regression analysis with log (inhibitor) vs. normalized response using a variable slope was applied to fit the data and determine the IC50 values for inhibition of RORγ and cell viability.
On the technique in general: A reporter such as luciferase makes a cellular process visible.

The next experiment has as its system NRF2. Kind of experiment: AREc32 luciferase reporter assay. Particulars: EC2×: concentration required to increase GST ARE Luciferase reporter activity by 2-fold; AREc32 cells, 19 hours. The class given is cell-based, human. The text has this:
B. AREc32 Luciferase Reporter Assay
The AREc32 luciferase reporter assay allows for quantitative assessment of the endogenous activity of the Nrf2 transcription factor in cultured mammalian cells. AREc32 cells are derived from MCF-7 human breast carcinoma cells that were stably transfected with a reporter construct that contains the firefly luciferase gene located downstream of eight copies of the rat GSTA2 antioxidant response element (ARE) sequence (Wang et al., 2006; CXR Biosciences). Active NRF2 binds to the ARE sequences and increases expression of the firefly luciferase gene. To assess the NRF2-activating potential of the test compounds, AREc32 cells were plated in black 96-well plates at a density of 20,000 cells per well in triplicate in DMEM+10% FBS+0.8 mg/mL Geneticin and incubated at 37° C. with 5% CO2 in a humidified atmosphere. The next day, cells were treated with DMSO (vehicle) or test compound (concentration ranges of 0.4-200 nM or 2-1000 nM) for 19 hours. Luciferase activity was determined using the ONE-Glo Luciferase assay (Promega). The luminescence signal was measured on a BMG Pherastar microplate reader. The mean luminescence value from test compound-treated wells was normalized to that from DMSO-treated wells and was represented as fold-induction. Data were analyzed using GraphPad Prism version 6.00 for Windows, GraphPad Software, La Jolla Calif. USA. A non-linear regression curve with log (agonist) vs. response using a variable slope was used to fit the data. Where applicable, a maximum threshold value of 50-fold over DMSO was set. EC2× values were interpolated from the curve. EC2× corresponds to the concentration of test compound required to increase GST ARE Luciferase reporter activity by 2-fold.

Turning to `Cc1noc([C@]23CCC(C)(C)C[C@H]2[C@H]2C(=O)C=C4[C@@]5(C)C=C(C#N)C(=O)C(C)(C)[C@@H]5CC[C@@]4(C)[C@]2(C)CC3)n1` [Comparison Compound #9, reference compound], the half-inhibitory concentration (IC50) in the experiment on hIL17 was 18 nM; in experiment [1], 1.2 nM; at human RORγ, 176 nM. Besides, in the experiment with NRF2, the “EC2x: concentration giving 2-fold induction of ARE luciferase reporter” value is reported as 12 nM.

As for `COC(=O)[C@]12CCC(C)(C)C[C@H]1[C@H]1C(=O)C=C3[C@@]4(C)C=C(C#N)C(=O)[C@@](C)(CO)[C@@H]4CC[C@@]3(C)[C@]1(C)CC2` [Comparison Compound #300, reference compound], the half-inhibitory concentration (IC50) in the experiment on hIL17 was 18 nM; in experiment [1], 7.4 nM; at human RORγ, 152 nM. The “EC2x: concentration giving 2-fold induction of ARE luciferase reporter” value with NRF2 was found to be 34 nM.

Consider `COC(=O)[C@]12CCC(C)(C)C[C@H]1[C@H]1C(=O)C=C3[C@@]4(C)C=C(C#N)C(=O)[C@](C)(CO)[C@@H]4CC[C@@]3(C)[C@]1(C)CC2` [Comparison Compound #301, reference compound], for which the IC50 in the experiment on hIL17 is 17 nM; in experiment [1] it was 1.8 nM; on human RORγ, 144 nM. In addition, the “EC2x: concentration giving 2-fold induction of ARE luciferase reporter” value in the experiment on NRF2 is 8 nM.

Turning to `COCOC[C@@]1(C)C(=O)C(C#N)=C[C@]2(C)C3=CC(=O)[C@@H]4[C@@H]5CC(C)(C)CC[C@]5(C(=O)OC)CC[C@@]4(C)[C@]3(C)CC[C@@H]12` [Comparison Compound #302, reference compound], the IC50 was 24 nM in the experiment with hIL17, 13.1 nM in experiment [1] and 91 nM at human RORγ. For the same compound, the “EC2x: concentration giving 2-fold induction of ARE luciferase reporter” value in the experiment on NRF2 amounted to 78 nM.

For `COC(=O)[C@]12CCC(C)(C)C[C@H]1[C@H]1C(=O)C=C3[C@@]4(C)C=C(C#N)C(=O)C[C@@H]4CC[C@@]3(C)[C@]1(C)CC2` [Compound T1], the IC50 worked out at 40 nM in the experiment with hIL17, 8.1 nM in experiment [1] and 144 nM on human RORγ. For the same compound, in the experiment on NRF2, the “EC2x: concentration giving 2-fold induction of ARE luciferase reporter” value is on record as 50 nM.

For `COC(=O)[C@]12CCC(C)(C)C[C@H]1[C@H]1C(=O)C=C3[C@@]4(C)C=C(C#N)C(=O)[C@@](C)(C(=O)OC)[C@@H]4CC[C@@]3(C)[C@]1(C)CC2` [Compound T2, dimethyl (4S,4aR,6aS,6bR,8aS,12aS,12bR,14bS)-2-cyano-4,6a,6b,11,11,14b-hexamethyl-3,13-dioxo-4,4a,5,6,6a,6b,7,8,9,10,11,12,12a,12b,13,14b-hexadecahydropicene-4,8a(3H)-dicarboxylate], the IC50 in the experiment on hIL17 was determined as 19 nM; in experiment [1] it was 92 nM; at human RORγ, 216 nM. For the same compound, the “EC2x: concentration giving 2-fold induction of ARE luciferase reporter” value with NRF2 is 204 nM.

Take `COC(=O)[C@]12CCC(C)(C)C[C@H]1[C@H]1C(=O)C=C3[C@@]4(C)C=C(C#N)C(=O)[C@](C)(C(=O)OC)[C@@H]4CC[C@@]3(C)[C@]1(C)CC2` [Compound T3, dimethyl (4R,4aR,6aS,6bR,8aS,12aS,12bR,14bS)-2-cyano-4,6a,6b, 11,11,14b-hexamethyl-3,13-dioxo-4,4a,5,6,6a,6b,7,8,9,10,11,12,12a,12b,13,14b-hexadecahydropicene-4,8a(3H)-dicarboxylate]: the half-inhibitory concentration (IC50) was found to be 18 nM in the experiment with hIL17, 22.3 nM in experiment [1] and 169 nM at human RORγ. In addition, the “EC2x: concentration giving 2-fold induction of ARE luciferase reporter” value with NRF2 is on record as 48 nM.

`COC(=O)[C@]12CCC(C)(C)C[C@H]1[C@H]1C(=O)C=C3[C@@]4(C)C=C(C#N)C(=O)[C@@](C)(C(F)F)[C@@H]4CC[C@@]3(C)[C@]1(C)CC2` [Compound T4, methyl (4aS,6aR,6bS,8aR,9S,12aS,14aR,14bS)-11-cyano-9-(difluoromethyl)-2,2,6a,6b,9,12a-hexamethyl-10,14-dioxo-1,3,4,5,6,6a,6b,7,8,8a,9,10,12a,14,14a,14b-hexadecahydropicene-4a(2H)-carboxylate]: the values for the IC50 (in the experiment with hIL17; in experiment [1]; on human RORγ) were 29 nM, 19.6 nM and 234 nM, respectively. For the same compound, the “EC2x: concentration giving 2-fold induction of ARE luciferase reporter” value in the experiment with NRF2 came to 36 nM.

With `COC(=O)[C@]12CCC(C)(C)C[C@H]1[C@H]1C(=O)C=C3[C@@]4(C)C=C(C#N)C(=O)[C@@](C)(O)[C@@H]4CC[C@@]3(C)[C@]1(C)CC2` [Compound T5], the IC50 with hIL17 stood at 18 nM; in experiment [1], 22.6 nM; at human RORγ it was 115 nM. Moreover, in the experiment with NRF2, the “EC2x: concentration giving 2-fold induction of ARE luciferase reporter” value is 56 nM.

By IC50 is commonly meant the concentration that inhibits the measured activity by half.
